Several values for one entry are separate records, joined by “and”; a condition that tells them apart may be missing. Equal values may be shown once.
Key:
Type in all cases: cell-based
mDOR = target: T1, mDOR (Mus musculus, UniProt P32300); experiment: CAMYEL BRET antagonism assay at mDOR (inhibition of DPDPE); conditions: for Antagonist activity at the mDOR (raw signal): individual replicates, Supplementary Figure 9B source data
T1 construct: expressed in transfected cells

hDOR = hDOR (Homo sapiens, UniProt P41143); experiment: CAMYEL BRET antagonism assay at hDOR (inhibition of DPDPE); conditions: for Antagonist activity at the hDOR (raw signal): individual replicates, Supplementary Figure 9A source data
rKOR = target: T2, rKOR (Rattus norvegicus, UniProt P34975); experiment: CAMYEL BRET antagonism assay at rKOR (inhibition of U-50,488); conditions: inhibition of reference agonist U50,488 (EC80)
T2 construct: expressed in transfected cells

[1] = Log[drug] (M) -5, against EC80 DPDPE
[2] = Log[drug] (M) -6, against EC80 DPDPE
[3] = Log[drug] (M) -7, against EC80 DPDPE
[4] = Log[drug] (M) -8, against EC80 DPDPE
[5] = Log[drug] (M) -9, against EC80 DPDPE
[6] = Log[drug] (M) -10, against EC80 DPDPE
[7] = Log[drug] (M) -11, against EC80 DPDPE
[8] = inhibition of reference agonist DPDPE (EC80)

T1 sequence (P32300 whole entry): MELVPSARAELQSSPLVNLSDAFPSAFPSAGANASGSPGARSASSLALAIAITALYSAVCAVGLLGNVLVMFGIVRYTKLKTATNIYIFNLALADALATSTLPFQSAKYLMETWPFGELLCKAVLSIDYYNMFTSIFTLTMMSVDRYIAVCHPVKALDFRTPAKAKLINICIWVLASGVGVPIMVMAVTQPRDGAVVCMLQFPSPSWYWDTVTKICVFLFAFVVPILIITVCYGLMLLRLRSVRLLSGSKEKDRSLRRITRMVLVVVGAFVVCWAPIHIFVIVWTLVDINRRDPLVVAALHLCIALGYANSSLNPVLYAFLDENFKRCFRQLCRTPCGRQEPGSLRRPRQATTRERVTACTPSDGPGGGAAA
Chain of hDOR (P41143 whole entry): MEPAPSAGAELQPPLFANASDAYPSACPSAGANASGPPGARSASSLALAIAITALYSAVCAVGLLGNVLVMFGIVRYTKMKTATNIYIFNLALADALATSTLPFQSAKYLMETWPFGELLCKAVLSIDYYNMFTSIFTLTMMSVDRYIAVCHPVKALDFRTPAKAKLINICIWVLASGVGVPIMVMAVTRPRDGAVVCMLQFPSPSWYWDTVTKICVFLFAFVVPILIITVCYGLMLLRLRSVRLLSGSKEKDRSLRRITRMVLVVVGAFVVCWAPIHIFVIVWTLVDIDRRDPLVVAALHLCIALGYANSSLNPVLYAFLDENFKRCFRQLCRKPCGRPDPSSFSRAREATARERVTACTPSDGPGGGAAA
T2 sequence (P34975 whole entry): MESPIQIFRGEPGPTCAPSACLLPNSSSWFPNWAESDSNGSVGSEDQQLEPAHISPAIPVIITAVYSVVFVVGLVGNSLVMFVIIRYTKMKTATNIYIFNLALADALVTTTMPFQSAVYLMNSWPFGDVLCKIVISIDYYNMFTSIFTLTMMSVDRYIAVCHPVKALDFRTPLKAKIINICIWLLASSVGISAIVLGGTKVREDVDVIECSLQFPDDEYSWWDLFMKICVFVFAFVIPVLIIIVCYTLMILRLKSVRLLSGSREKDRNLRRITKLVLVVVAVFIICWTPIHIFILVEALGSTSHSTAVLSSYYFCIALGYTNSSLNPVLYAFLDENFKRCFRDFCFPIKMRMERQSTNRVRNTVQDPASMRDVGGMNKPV

With `CC[C@@H]1CN2CC[C@@]3(O)C(=Nc4cc(Br)cc(OC)c43)[C@@H]2C[C@@H]1/C(=C\OC)C(=O)OC` [11-Br-7OH (24), 11-Br-7OH] the “Antagonist activity at the mDOR (raw signal)” value (mDOR; [1]) was 0.06399 and 0.06291 and 0.07141 and -0.0292 and -0.02688 and -0.02364 and 0.0237 and 0.00593 and 0.00355, the “Antagonist activity at the mDOR (raw signal)” value (mDOR; [2]) was 0.1505 and 0.1501 and 0.1583 and 0.09131 and 0.07128 and 0.07775 and 0.02237 and 0.03499 and 0.03942 and the “Antagonist activity at the mDOR (raw signal)” value (mDOR; [3]) was 0.2144 and 0.2068 and 0.2165 and 0.1245 and 0.1236 and 0.1249 and 0.06242 and 0.05459 and 0.06232. For the same compound, the “Antagonist activity at the mDOR (raw signal)” value (mDOR; [4]) was 0.2065 and 0.2182 and 0.2145 and 0.1188 and 0.1346 and 0.1274 and 0.05577 and 0.0581 and 0.03338, the “Antagonist activity at the mDOR (raw signal)” value (mDOR; [5]) was 0.2158 and 0.2138 and 0.2085 and 0.1371 and 0.1339 and 0.1253 and 0.04145 and 0.04861 and 0.04624 and the “Antagonist activity at the mDOR (raw signal)” value (mDOR; [6]) was 0.2122 and 0.2205 and 0.2303 and 0.1255 and 0.1229 and 0.131 and 0.04756 and 0.04362 and 0.03388. The “Antagonist activity at the mDOR (raw signal)” value (mDOR; [7]) was 0.208 and 0.2144 and 0.211 and 0.1321 and 0.1264 and 0.1313 and 0.05075 and 0.03733 and 0.04896, the “antagonism at mDOR” value (mDOR; [8]) was “full inhibition” and the “Antagonist activity at the hDOR (raw signal)” value (hDOR; [1]) was 0.02104 and 0.01573 and 0.009966 and -0.01593 and -0.01928 and -0.02427 and 0.02048 and 0.01948 and 0.01559. For the same compound, the “Antagonist activity at the hDOR (raw signal)” value (hDOR; [2]) was 0.04515 and 0.04385 and 0.04449 and 0.03157 and 0.04067 and 0.05399 and 0.01786 and 0.03044 and 0.02432, the “Antagonist activity at the hDOR (raw signal)” value (hDOR; [3]) was 0.1057 and 0.11 and 0.09817 and 0.09774 and 0.0895 and 0.09531 and 0.04711 and 0.02047 and 0.02787 and the “Antagonist activity at the hDOR (raw signal)” value (hDOR; [4]) was 0.1076 and 0.1055 and 0.1083 and 0.107 and 0.1014 and 0.09451 and 0.04651 and 0.03638 and 0.03747. For the same compound, the “Antagonist activity at the hDOR (raw signal)” value (hDOR; [5]) was 0.1047 and 0.1019 and 0.1172 and 0.09234 and 0.1022 and 0.1004 and 0.02352 and 0.04174 and 0.03714, the “Antagonist activity at the hDOR (raw signal)” value (hDOR; [6]) was 0.1014 and 0.1021 and 0.1072 and 0.1078 and 0.1042 and 0.1009 and 0.03392 and 0.02253 and 0.04348 and the “Antagonist activity at the hDOR (raw signal)” value (hDOR; [7]) was 0.122 and 0.117 and 0.1095 and 0.09539 and 0.09115 and 0.09894 and 0.04038 and 0.02714 and 0.0351. The “antagonism at hDOR” value (hDOR; [8]) was “full inhibition” and the “antagonism at rKOR” value (rKOR) was “full inhibition”.

Reference: article PMC8219695 (Nature Communications, 2021)
